Measured values taken from patent US20260306527A1, “PRMT INHIBITOR COMPOUNDS AND THE USES THEREOF” (Purdue Research Foundation, priority 2023, published 2026).
Read-outs that look alike come from different tables or passages of the source.

Experiments:
Type in all cases: biochemical
PRMT4 = biological target: T1, PRMT4 (Homo sapiens, UniProt Q86X55); assay: radioactive assay (Reaction Biology Corp.), inhibition of PRMT4
T1 sequence (Q86X55 1-608): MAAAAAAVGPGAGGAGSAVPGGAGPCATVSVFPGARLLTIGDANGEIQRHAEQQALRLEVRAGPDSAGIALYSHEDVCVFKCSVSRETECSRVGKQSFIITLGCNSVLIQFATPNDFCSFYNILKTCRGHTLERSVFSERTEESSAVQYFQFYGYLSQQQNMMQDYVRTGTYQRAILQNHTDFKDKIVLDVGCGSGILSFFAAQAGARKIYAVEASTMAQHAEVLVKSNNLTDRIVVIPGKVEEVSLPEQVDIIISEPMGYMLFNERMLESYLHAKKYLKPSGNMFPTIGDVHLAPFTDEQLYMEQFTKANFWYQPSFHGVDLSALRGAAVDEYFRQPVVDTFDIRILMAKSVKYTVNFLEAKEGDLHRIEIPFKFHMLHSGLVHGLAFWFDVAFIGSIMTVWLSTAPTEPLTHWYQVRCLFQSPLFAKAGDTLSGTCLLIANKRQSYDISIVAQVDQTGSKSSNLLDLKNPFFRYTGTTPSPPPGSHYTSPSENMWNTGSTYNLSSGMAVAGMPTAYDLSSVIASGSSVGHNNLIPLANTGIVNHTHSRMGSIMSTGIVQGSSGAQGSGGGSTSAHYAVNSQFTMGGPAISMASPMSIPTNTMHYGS
Protocol: (§1) Next, the inhibition activity of the library was investigated for five PRMT members from type I PRMTs.
(§2) The PRMT 4, 6 and 8 methylation assays were performed by Reaction Biology corp.

PRMT1 = biological target: T2, PRMT1 (Homo sapiens, UniProt Q99873); assay: SAHH-coupled fluorescence assay, inhibition of PRMT1
T2 construct: made in house
Procedure, shortened: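 PRMT1 (0.1 μM) was run with 10 μM AdoMet, 5 μM SAHH and 10 μM ThioGlo4 in 2.5 mM HEPES pH 7.0, 25 mM NaCl, 25 μM EDTA, 50 μM TCEP and 0.01% Triton X-100. Fluorescence (ex 400/em 465 nm) was monitored for 15 min. Assays were done in duplicate.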

PRMT3 [1] = biological target: PRMT3 (Homo sapiens, UniProt O60678); assay: SAHH-coupled fluorescence assay, inhibition of PRMT3; set-up: PRMT3 (residues 211-531) was cloned into the pET28a-MHL expression vector; tag of the pET28a-MHL vector (not described); made in house; host or cells: Escherichia coli BL21(DE3)
Procedure, shortened: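 Coupled SAHH/ThioGlo4 fluorescence read-out (ex 380 nm, em 505 nm) of PRMT3 (0.25 μM) methylation with 30 μM AdoMet and 5 μM SAHH. Buffer was 20 mM Tris pH 7.5 with 0.01% Triton X-100. Run in duplicate.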

PRMT6 = PRMT6 (Homo sapiens, UniProt Q96LA8); assay: radioactive assay (Reaction Biology Corp.), inhibition of PRMT6
Protocol: as §1, §2

PRMT3 [2] = assay: SAHH-coupled fluorescence assay, inhibition of PRMT3
Protocol: A fluorescence-based SAHH-coupled assay was applied to study the inhibition activity of all synthesized compounds on PRMT 1 and 3.
(§3) The PRMT3 methylation assay was performed under the following conditions in a final well volume of 100 μL: 20 mM Tris (pH=7.5), 0.01% Triton X-100, 5 μM SAHH, 0.25 μM PRMT3, 30 μM AdoMet, and 15 μM ThioGlo4. […] Fluorescence was monitored on a BMG CLARIOstar microplate reader with excitation 380 nm and emission 505 nm. Data were processed by using GraphPad Prism software 8.0. All experiments were performed in duplicate.
as §1
as §3, with “8.0.” for “8.0. All experiments were performed in duplicate.”

PRMT8 = PRMT8 (Homo sapiens, UniProt Q9NR22); assay: radioactive assay (Reaction Biology Corp.), inhibition of PRMT8
Protocol: as §1, §2

PRMT6, sequence (Q96LA8 whole entry, species assumed): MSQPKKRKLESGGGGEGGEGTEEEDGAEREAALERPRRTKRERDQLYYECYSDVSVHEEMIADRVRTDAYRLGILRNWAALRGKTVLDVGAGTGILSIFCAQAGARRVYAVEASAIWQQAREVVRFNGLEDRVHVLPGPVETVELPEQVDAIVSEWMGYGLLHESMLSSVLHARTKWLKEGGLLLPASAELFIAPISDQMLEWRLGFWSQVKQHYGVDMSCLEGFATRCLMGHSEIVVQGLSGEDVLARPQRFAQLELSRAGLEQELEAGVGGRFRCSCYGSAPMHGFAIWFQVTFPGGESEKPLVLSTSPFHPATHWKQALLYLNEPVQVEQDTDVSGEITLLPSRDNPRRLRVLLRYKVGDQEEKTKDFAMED
T2 sequence (Q99873 whole entry, species assumed): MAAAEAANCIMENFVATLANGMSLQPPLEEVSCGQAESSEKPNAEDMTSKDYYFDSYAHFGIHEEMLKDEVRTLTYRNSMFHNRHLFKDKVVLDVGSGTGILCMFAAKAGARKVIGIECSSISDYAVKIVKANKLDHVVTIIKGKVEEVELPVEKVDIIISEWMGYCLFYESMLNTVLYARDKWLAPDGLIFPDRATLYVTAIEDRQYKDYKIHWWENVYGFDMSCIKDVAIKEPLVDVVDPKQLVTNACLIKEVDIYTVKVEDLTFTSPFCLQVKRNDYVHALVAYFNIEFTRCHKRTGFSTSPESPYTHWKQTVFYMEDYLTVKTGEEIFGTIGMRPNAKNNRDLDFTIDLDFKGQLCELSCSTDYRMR
PRMT3 (Homo sapiens, UniProt O60678), sequence (O60678 211-531): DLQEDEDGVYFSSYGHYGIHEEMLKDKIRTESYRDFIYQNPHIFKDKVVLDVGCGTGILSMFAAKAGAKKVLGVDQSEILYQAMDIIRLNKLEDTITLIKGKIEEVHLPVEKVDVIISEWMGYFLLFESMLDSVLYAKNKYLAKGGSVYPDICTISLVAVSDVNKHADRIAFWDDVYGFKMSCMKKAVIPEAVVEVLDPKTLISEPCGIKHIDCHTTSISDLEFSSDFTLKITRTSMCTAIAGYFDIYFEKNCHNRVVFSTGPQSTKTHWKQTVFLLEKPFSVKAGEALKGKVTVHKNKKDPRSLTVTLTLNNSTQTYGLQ
PRMT8, sequence (Q9NR22 whole entry, species assumed): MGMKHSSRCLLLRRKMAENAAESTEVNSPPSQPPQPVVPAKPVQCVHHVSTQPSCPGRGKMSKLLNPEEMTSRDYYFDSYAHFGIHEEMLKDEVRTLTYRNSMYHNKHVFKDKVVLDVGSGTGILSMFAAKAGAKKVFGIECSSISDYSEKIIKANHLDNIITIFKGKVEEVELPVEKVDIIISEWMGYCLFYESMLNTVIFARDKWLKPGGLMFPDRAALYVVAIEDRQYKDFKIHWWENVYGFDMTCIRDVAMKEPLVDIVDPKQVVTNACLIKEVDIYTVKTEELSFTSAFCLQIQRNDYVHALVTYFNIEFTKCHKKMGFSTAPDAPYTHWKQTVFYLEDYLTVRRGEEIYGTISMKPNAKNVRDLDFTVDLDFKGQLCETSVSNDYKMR

SMILES	inhibition at 10 µM (PRMT4) [%]	inhibition at 10 µM (PRMT1) [%]	IC50 (PRMT1; read-out: IC50[μM] | PRMT1) [µM]	inhibition at 10 µM (PRMT3 [1]) [%]	fold decrease in PRMT3 inhibition (PRMT3 [1]; 1d (2C-atom linker) vs II710) [fold]	inhibition at 10 µM (PRMT6) [%]	IC50 (PRMT3 [2]; read-out: IC50 [µM] | PRMT3) [µM]	inhibition at 10 µM (PRMT8) [%]	IC50 (PRMT3 [2]; read-out: IC50[μM] | PRMT3) [µM]	IC50 (PRMT1; read-out: IC50 FOR PRMT1) [µM]
N=C(NCCSC[C@H]1O[C@@H](n2cnc3c(N)ncnc32)[C@H](O)[C@@H]1O)NCc1ccccc1 [Compound 5a]	99	86	1 ± 0.065	57	3	93	33 ± 4.3	76	–	–
N=C(NCCSC[C@H]1O[C@@H](n2cnc3c(N)ncnc32)[C@H](O)[C@@H]1O)Nc1cccc(I)c1 [Compound 5c]	100	95	0.13 ± 0.006	38	–	98	–	99	8.68 ± 2.9	–
N=C(NCCCSC[C@H]1O[C@@H](n2cnc3c(N)ncnc32)[C@H](O)[C@@H]1O)Nc1ccccc1 [Compound 5d]	99	94	0.17 ± 0.011	54	–	99	–	98	7.2 ± 0.61	–
N=C(NCCSC[C@H]1O[C@@H](n2cnc3c(N)ncnc32)[C@H](O)[C@@H]1O)Nc1cccc(-c2ccc(Cl)cc2)c1 [Compound 6a]	100	89	0.21 ± 0.054	62	–	91	–	97	5.9 ± 0.34	–
N=C(NCCSC[C@H]1O[C@@H](n2cnc3c(N)ncnc32)[C@H](O)[C@@H]1O)Nc1cccc(-c2ccc(C(F)(F)F)cc2)c1 [Compound 6b]	100	83	1.8 ± 0.17	42	–	91	–	94	12 ± 0.83	–
N=C(NCCSC[C@H]1O[C@@H](n2cnc3c(N)ncnc32)[C@H](O)[C@@H]1O)Nc1cccc(-c2ccoc2)c1 [Compound 6c]	100	84	1.5 ± 0.12	48	–	76	–	82	8.3 ± 0.34	–
N=C(NCCSC[C@H]1O[C@@H](n2cnc3c(N)ncnc32)[C@H](O)[C@@H]1O)Nc1cccc(-c2cccc(F)c2)c1 [Compound 6d]	100	68	4.9 ± 0.11	26	–	67	–	81	18 ± 2.1	–
N=C(NCCCSC[C@H]1O[C@@H](n2cnc3c(N)ncnc32)[C@H](O)[C@@H]1O)Nc1cccc(-c2ccc(O)cc2)c1 [Compound 6e]	100	95	0.23 ± 0.013	47	–	99	–	98	8.6 ± 0.58	–
N=C(NCCCSC[C@H]1O[C@@H](n2cnc3c(N)ncnc32)[C@H](O)[C@@H]1O)Nc1cccc(-c2ccc(Cl)cc2)c1 [Compound 6f]	100	92	0.2 ± 0.031	76	–	97	–	100	1.8 ± 0.23	–
N=C(NCCCSC[C@H]1O[C@@H](n2cnc3c(N)ncnc32)[C@H](O)[C@@H]1O)Nc1cccc(-c2ccc3c(c2)OCCO3)c1 [Compound 6g]	100	87	0.21 ± 0.023	64	–	98	–	99	3.2 ± 0.47	–
N=C(NCCCSC[C@H]1O[C@@H](n2cnc3c(N)ncnc32)[C@H](O)[C@@H]1O)Nc1cccc(-c2ccc(C(F)(F)F)cc2)c1 [Compound 6h]	100	88	0.25 ± 0.051	57	–	97	–	99	5.7 ± 0.68	–
N=C(NCCCSC[C@H]1O[C@@H](n2cnc3c(N)ncnc32)[C@H](O)[C@@H]1O)Nc1cccc(-c2cccc(F)c2)c1 [Compound 6j]	100	96	0.26 ± 0.057	45	–	97	–	99	4.7 ± 0.83	–
N=C(NCCCSC[C@H]1O[C@@H](n2cnc3c(N)ncnc32)[C@H](O)[C@@H]1O)Nc1cccc(-c2ccc(F)cc2F)c1 [Compound 6k]	100	97	0.33 ± 0.072	50	–	96	–	99	6.6 ± 2.8	–
N=C(NCCCSC[C@H]1O[C@@H](n2cnc3c(N)ncnc32)[C@H](O)[C@@H]1O)Nc1cccc(-c2ccc(F)c(O)c2)c1 [Compound 6l]	100	92	0.17 ± 0.022	58	–	97	–	99	5.5 ± 1	–
N=C(NCCCSC[C@H]1O[C@@H](n2cnc3c(N)ncnc32)[C@H](O)[C@@H]1O)Nc1cccc(-c2cccnc2)c1 [Compound 6m]	100	88	0.9 ± 0.17	22	–	93	–	96	14 ± 3.1	–
N=C(NCCCSC[C@H]1O[C@@H](n2cnc3c(N)ncnc32)[C@H](O)[C@@H]1O)Nc1cccc(-c2ccc(F)nc2)c1 [Compound 6n]	100	91	0.35 ± 0.073	61	–	99	–	100	4.2 ± 0.61	–
N=C(NCCCN)NCCCSC[C@H]1O[C@@H](n2cnc3c(NCCCc4ccccc4)ncnc32)[C@H](O)[C@@H]1O [Compound 19i]	37	89	–	13	–	79	–	74	–	1.3 ± 0.066
N=C(NCCCSC[C@H]1O[C@@H](n2cnc3c(NCCCc4ccccc4)ncnc32)[C@H](O)[C@@H]1O)Nc1ccccc1 [Compound 19j]	54	83	–	2	–	92	–	86	–	0.46 ± 0.074
N=C(NCCCSC[C@H]1O[C@@H](n2cnc3c(NCCCc4ccccc4)ncnc32)[C@H](O)[C@@H]1O)NCc1ccccc1 [Compound 19k]	44	89	–	10	–	89	–	83	–	0.48 ± 0.079
N=C(NCCCSC[C@H]1O[C@@H](n2cnc3c(NCCCc4ccccc4)ncnc32)[C@H](O)[C@@H]1O)NCCc1ccccc1 [Compound 19l]	26	90	–	9	–	86	–	87	–	0.5 ± 0.075
N=C(NCCCSC[C@H]1O[C@@H](n2cnc3c(NCCCc4ccccc4)ncnc32)[C@H](O)[C@@H]1O)NCCCc1ccccc1 [Compound 19m]	58	87	–	5	–	83	–	85	–	0.74 ± 0.08
